Results published in patent publication US20260042753A1 (Merck Patent GmbH, priority 2019, published 2026).
Read-outs that look alike come from different tables or passages of the source.

Tests used:
c-Kit(V654A) = c-Kit(V654A) (Homo sapiens, UniProt P10721, V654A); assay: c-Kit(V654A) assay; format: biochemical
Procedure: c-Kit(V654A) (N-terminal GST-tagged, recombinant human c-Kit, amino acids 544-end containing the V654A mutation) is incubated with 8 mM MOPS pH 7.0, 0.2 mM EDTA, 250 μM GGMEDIYEFMGGKKK, 10 mM MgAcetate and [gamma-33P-ATP](specific activity approx. 500 cpm/pmol, concentration 200 μM). The reaction is initiated by the addition of the MgATP mix. After incubation for 40 minutes at room temperature, the reaction is stopped by the addition of 3% phosphoric acid solution. 10 μL of the reaction is then spotted onto a P30 filtermat and washed three times for 5 minutes in 75 mM phosphoric acid and once in methanol prior to drying and scintillation counting.

[1] = target: mutant cKIT (560-576 and V654A) in GIST430/654 cell line (Homo sapiens (Human), UniProt P10721, DEL560-576/V654A); assay: Cellular testing of cKIT mutant inhibitors: phospho-Y307-cKIT Luminex assay in GIST430/654 cells; format: cell-based; settings: read-out: GIST 430/654 IC50
Procedure: Assay Principle for Cellular Testing of cKIT Mutant Inhibitors
The GIST430/654 cell line expressing mutated constitutively active cKIT receptor tyrosine kinase ([…]560-576 and V654A) was employed for assessing cellular potency of compounds. Cellular activity of mutant cKIT was determined by the degree of cKIT autophosphorylation at tyrosine 307 using a Luminex-based bead assay. GIST430/654 cells were plated with 25,000 cells per well of a 96-well plate in 100 μl medium (85% IMDM/15% FCS supplemented with 100 nM Imatinib). At the following day compounds were added in a serial dilution for 45 min. Then, cells were lysed with 90 μl lysis buffer (20 mM Hepes pH 7.5, 200 mM NaCl, 1.5 mM MgCl2×6H2O, 0.4 mM EDTA, 1% Triton-X-100, 1% Phosphatase-Inhibitor II, 20 mM D-Glycerolphosphat, 0.1% Protease-Inhibitor Cocktail III, 0.01% Benzonase) und lysates were cleared by centrifugation through a 96-well filter plate (0.65 μm). Samples were incubated with Luminex-beads which were coupled with an anti-total cKIT antibody overnight at 4° C. under gentle agitation. For detection of phospho-Y307-cKIT a phosphospecific antibody and a species-specific PE-labelled secondary antibody were added. The amount of phospho-Y307-cKIT was determined in a Luminex 200 instrument measuring 100 events per well within 60 seconds.
Counts from samples treated with compounds were calculated as percent of control from solvent treated (0.3% DMSO) samples. Dose-response curves were fitted and IC50 values were determined using Genedata Screener software.

[2] = Table 1, cKIT autophosphorylation, compounds 45 min
[3] = Table 2, corresponding triazole derivatives

mutant cKIT (560-576 and V654A) in GIST430/654 cell line, sequence (P10721 other isoform, or with tags, fused parts or gaps V654A/del 1-25/del 560-576 limits assumed): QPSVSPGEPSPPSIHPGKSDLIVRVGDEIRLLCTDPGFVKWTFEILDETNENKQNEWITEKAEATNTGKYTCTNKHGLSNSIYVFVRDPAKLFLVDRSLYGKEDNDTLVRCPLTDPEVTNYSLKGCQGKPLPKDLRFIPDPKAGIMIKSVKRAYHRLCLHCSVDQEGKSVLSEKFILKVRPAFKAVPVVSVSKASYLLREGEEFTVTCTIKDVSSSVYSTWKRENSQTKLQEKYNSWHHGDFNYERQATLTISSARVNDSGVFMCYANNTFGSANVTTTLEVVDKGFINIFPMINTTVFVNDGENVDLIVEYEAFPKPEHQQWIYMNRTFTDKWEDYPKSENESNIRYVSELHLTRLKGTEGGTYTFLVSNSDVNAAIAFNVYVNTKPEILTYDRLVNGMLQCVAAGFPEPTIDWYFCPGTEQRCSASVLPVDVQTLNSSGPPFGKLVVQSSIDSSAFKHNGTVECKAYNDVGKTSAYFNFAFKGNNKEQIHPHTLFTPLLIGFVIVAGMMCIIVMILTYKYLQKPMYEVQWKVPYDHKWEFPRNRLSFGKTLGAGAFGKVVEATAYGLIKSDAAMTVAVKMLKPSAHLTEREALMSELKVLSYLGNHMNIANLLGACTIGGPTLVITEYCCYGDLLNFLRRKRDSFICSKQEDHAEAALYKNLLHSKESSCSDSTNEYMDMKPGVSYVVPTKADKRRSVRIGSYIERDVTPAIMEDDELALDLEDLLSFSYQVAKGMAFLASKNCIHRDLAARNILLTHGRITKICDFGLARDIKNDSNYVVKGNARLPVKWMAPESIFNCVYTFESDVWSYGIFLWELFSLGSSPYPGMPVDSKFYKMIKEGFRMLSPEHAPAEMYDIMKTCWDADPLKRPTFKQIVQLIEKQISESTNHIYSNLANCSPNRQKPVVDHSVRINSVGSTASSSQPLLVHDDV

SMILES	IC50 (c-Kit(V654A); Table 1, 200 μM ATP) [nM]	IC50 [1, 2] [nM]	IC50 (c-Kit(V654A); [3]) [nM]	IC50 [1, 3] [nM]
COCCOc1cc2[nH]nc(-c3cc(-c4ccc(C(=O)N5CCS(=N)(=O)CC5)cc4)no3)c2cc1F [A80, 4-(4-{5-[5-fluoro-6-(2-methoxyethoxy)-1H-indazol-3-yl]-1,2-oxazol-3-yl}benzoyl)-1-imino-1lambda6-thiomorpholin-1-one]	0.99	460	–	–
COCCOc1cc2[nH]nc(-c3cc(-c4ccc(-n5nc(C)ccc5=O)cc4)no3)c2cc1F [A136, 2-(4-{5-[5-fluoro-6-(2-methoxy-ethoxy)-1H-indazol-3-yl]-isoxazol-3-yl}-phenyl)-6-methyl-2H-pyridazin-3-one]	5.9	140	–	–
COCCOc1cc2[nH]nc(-c3cc(-c4ccc(C(=O)N5Cc6ccncc6C5)cc4)no3)c2cc1F [A183, 5-fluoro-6-(2-methoxyethoxy)-3-[3-(4-{1H,2H,3H-pyrrolo[3,4-c]pyridine-2-carbonyl}phenyl)-1,2-oxazol-5-yl]-1H-indazole]	0.55	18	–	–
COCCOc1cc2[nH]nc(-c3cc(-c4ccc(C(=O)N5CC[C@H]5C(C)(C)O)cc4)no3)c2cc1F [A59, 2-[(2S)-1-(4-{5-[5-fluoro-6-(2-methoxyethoxy)-1H-indazol-3-yl]-1,2-oxazol-3-yl}benzoyl)azetidin-2-yl]propan-2-ol]	0.51	33	–	–
COCCOc1cc2[nH]nc(-c3cc(-c4ccc(C(=O)N5CCN(C6COC6)C[C@H]5C)cc4)no3)c2cc1F [A190, 5-fluoro-6-(2-methoxyethoxy)-3-(3-{4-[(2R)-2-methyl-4-(oxetan-3-yl)piperazine-1-carbonyl]phenyl}-1,2-oxazol-5-yl)-1H-indazole]	1.6	55	–	–
COCCOc1cc2[nH]nc(-c3cn(-c4ccc(C(=O)N5CC(C#N)C5)cc4)nn3)c2cc1F [reference compound]	–	–	13	2200
COCCOc1cc2[nH]nc(-c3cc(-c4ccc(C(=O)N5CC6(CCOC6)C5)cc4)no3)c2cc1F [A77, 5-fluoro-6-(2-methoxyethoxy)-3-[3-(4-{6-oxa-2-azaspiro[3.4]octane-2-carbonyl}phenyl)-1,2-oxazol-5-yl]-1H-indazole]	1	47	–	–
COc1cc2[nH]nc(-c3cc(-c4ccc(C(=O)N5C[C@H]6COC[C@H]6C5)cc4)no3)c2cc1F [A220, {4-[5-(5-Fluoro-6-methoxy-1H-indazol-3-yl)-isoxazol-3-yl]-phenyl}-(cis)-tetrahydro-furo[3,4-c]pyrrol-5-yl-methanone]	2.2	160	–	–
COCCOc1cc2[nH]nc(-c3cc(-c4ccc(C(=O)N5CCC[C@@H]5CNS(C)(=O)=O)cc4)no3)c2cc1F [A94, N-{[(2R)-1-(4-{5-[5-fluoro-6-(2-methoxyethoxy)-1H-indazol-3-yl]-1,2-oxazol-3-yl}benzoyl)pyrrolidin-2-yl]methyl}methanesulfonamide]	0.58	100	–	–
COCCOc1cc2[nH]nc(-c3cc(-c4ccc(C(=O)N5CCOC[C@H]5COC)cc4)no3)c2cc1F [A111, 5-fluoro-6-(2-methoxyethoxy)-3-(3-{4-[(3R)-3-(methoxymethyl)morpholine-4-carbonyl]phenyl}-1,2-oxazol-5-yl)-1H-indazole]	1.2	62	–	–
COCCOc1cc2[nH]nc(-c3cc(-c4ccc(S(C)(=N)=O)cc4)no3)c2cc1F (centres unmarked) [A226, (4-{5-[5-fluoro-6-(2-methoxyethoxy)-1H-indazol-3-yl]-1,2-oxazol-3-yl}phenyl)(imino)methyl-lambda6-sulfanone]	2	150	–	–
COCCOc1cc2[nH]nc(-c3cc(-c4ccc(C(=O)N5CCOCC56COC6)cc4)no3)c2cc1F [A155, 5-(4-{5-[5-fluoro-6-(2-methoxyethoxy)-1H-indazol-3-yl]-1,2-oxazol-3-yl}benzoyl)-2,8-dioxa-5-azaspiro[3.5]nonane]	1.6	60	–	–
COCCOc1cc2[nH]nc(-c3cc(-c4ccc(C(=O)N5CCN(C)C(=O)C5)cc4)no3)c2cc1F [A116, 4-(4-{5-[5-fluoro-6-(2-methoxyethoxy)-1H-indazol-3-yl]-1,2-oxazol-3-yl}benzoyl)-1-methylpiperazin-2-one]	4.1	120	–	–
COCCOc1cc2[nH]nc(-c3cn(-c4ccc(C(=O)N5CC[C@H]5C(C)(C)O)cc4)nn3)c2cc1F [reference compound]	–	–	7.5	240
COCCOc1cc2[nH]nc(-c3cc(-c4ccc(C(=O)N5CC(c6ccncn6)C5)cc4)no3)c2cc1F [A172, 5-fluoro-6-(2-methoxyethoxy)-3-(3-{4-[3-(pyrimidin-4-yl)azetidine-1-carbonyl]phenyl}-1,2-oxazol-5-yl)-1H-indazole]	0.89	54	–	–
COCCOc1cc2[nH]nc(-c3cc(-c4ccc(C(=O)N5CC6(CCN(C7COC7)CC6)C5)cc4)no3)c2cc1F [A199, 2-(4-{5-[5-fluoro-6-(2-methoxyethoxy)-1H-indazol-3-yl]-1,2-oxazol-3-yl}benzoyl)-7-(oxetan-3-yl)-2,7-diazaspiro[3.5]nonane]	0.76	28	–	–
COCCOc1cc2[nH]nc(-c3cc(-c4ccc(C(=O)N5CCC56COC6)c(C)c4)no3)c2cc1F [A169, (4-{5-[5-fluoro-6-(2-methoxy-ethoxy)-1H-indazol-3-yl]-isoxazol-3-yl}-2-methyl-phenyl)-(6-oxa-1-aza-spiro[3.3]hept-1-yl)-methanone]	1.2	44	–	–
COCCOc1cc2[nH]nc(-c3cc(-c4ccc(C(=O)N5CCN(C)C[C@@H]5C)cc4)on3)c2cc1C#N [A11, 3-(5-{4-[(2S)-2,4-dimethylpiperazine-1-carbonyl]phenyl}-1,2-oxazol-3-yl)-6-(2-methoxyethoxy)-1H-indazole-5-carbonitrile]	2.4	170	–	–
COCCOc1cc2[nH]nc(-c3cc(-c4ccc(C(=O)N5CC[C@@H](F)C5)nc4)no3)c2cc1F [A100, 5-fluoro-3-(3-{6-[(3R)-3-fluoropyrrolidine-1-carbonyl]pyridin-3-yl}-1,2-oxazol-5-yl)-6-(2-methoxyethoxy)-1H-indazole]	5.7	340	–	–
COCCOc1cc2[nH]nc(-c3cc(-c4ccc(OC)nc4)no3)c2cc1F [A130, 5-fluoro-6-(2-methoxy-ethoxy)-3-[3-(6-methoxy-pyridin-3-yl)-isoxazol-5-yl]-1H-indazole]	27	–	–	–
COCCOc1cc2[nH]nc(-c3cn(-c4ccc(C(=O)N5CCOCC5)cc4)nn3)c2cc1F [reference compound]	–	–	–	490
COCCOc1cc2[nH]nc(-c3cc(-c4cncs4)no3)c2cc1F [A48, 5-fluoro-6-(2-methoxyethoxy)-3-[3-(1,3-thiazol-5-yl)-1,2-oxazol-5-yl]-1H-indazole]	13	–	–	–
COC(=O)c1ccc2c(-c3cc(-c4ccc(C(=O)N(C)C)cc4)no3)n[nH]c2c1 [A19, methyl 3-{3-[4-(dimethylcarbamoyl)phenyl]-1,2-oxazol-5-yl}-1H-indazole-6-carboxylate]	8.2	–	–	–
COCCOc1cc2[nH]nc(-c3cc(-c4ncc(C(=O)N5CC(N6CCOCC6)C5)s4)no3)c2cc1F [A83, 5-fluoro-6-(2-methoxyethoxy)-3-(3-{5-[3-(morpholin-4-yl)azetidine-1-carbonyl]-1,3-thiazol-2-yl}-1,2-oxazol-5-yl)-1H-indazole]	76	–	–	–
COCCOc1cc2[nH]nc(-c3cc(-c4ncc(C(=O)N5CC(F)C5)s4)no3)c2cc1F [A86, 5-fluoro-3-{3-[5-(3-fluoroazetidine-1-carbonyl)-1,3-thiazol-2-yl]-1,2-oxazol-5-yl}-6-(2-methoxyethoxy)-1H-indazole]	69	–	–	–
COCCOc1cc2[nH]nc(-c3cc(-c4ccc(N5CCS(=O)(=O)CC5)cc4)no3)c2cc1F [A122, 4-(4-{5-[5-fluoro-6-(2-methoxyethoxy)-1H-indazol-3-yl]-1,2-oxazol-3-yl}phenyl)-1lambda6-thiomorpholine-1,1-dione]	54	–	–	–
CNC(=O)c1ccc2c(-c3cc(-c4ccc(C(=O)N(C)C)cc4)no3)n[nH]c2c1 [A24, 3-[3-(4-dimethylcarbamoyl-phenyl)-isoxazol-5-yl]-1H-indazole-6-carboxylic acid methylamide]	88	–	–	–
COCCOc1cc2[nH]nc(-c3cn(-c4ccc(C(=O)N(C)C)cc4)nn3)c2cc1F [reference compound]	–	–	11	–
